Like-named read-outs stand apart in the source and are kept apart here.
What was measured:
dopamine D3 (h) = dopamine D3 (h) (Homo sapiens, UniProt P35462); assay: biochemical; type: binding
HREC = assay: OncoPanel normal cell proliferation assay (3-day); type: cell-based
[1] = system: CCL2 release from IL-4, IL-13, IL-22 and IFN-γ-stimulated primary human keratinocytes; assay: Keratinocyte CCL2 release (assay number 1280); type: cell-based
[2] = Keratinocyte cell viability, IL-8 assay (assay number 1244); type: cell-based, human; conditions: human, primary human keratinocytes induced with IL-17A and TNFα; read-out: Inhibition of cell viability, Max Effect
[3] = system: primary human keratinocytes; assay: as above; type: cell-based; conditions: Homo sapiens, Keratinocyte; read-out: Inhibition of cell viability, Rel EC50
DNMT3B/DNMT3L (h) = DNMT3B/DNMT3L (h) (Homo sapiens, UniProt Q9UBC3); conditions: read-out: Reference IC50; cited from earlier work
EHMT1 (h) = target: T1, EHMT1 (h) (Homo sapiens, UniProt Q9H9B1); conditions: read-out: Reference: IC50; cited from earlier work
T1 sequence (Q9H9B1 1-1298): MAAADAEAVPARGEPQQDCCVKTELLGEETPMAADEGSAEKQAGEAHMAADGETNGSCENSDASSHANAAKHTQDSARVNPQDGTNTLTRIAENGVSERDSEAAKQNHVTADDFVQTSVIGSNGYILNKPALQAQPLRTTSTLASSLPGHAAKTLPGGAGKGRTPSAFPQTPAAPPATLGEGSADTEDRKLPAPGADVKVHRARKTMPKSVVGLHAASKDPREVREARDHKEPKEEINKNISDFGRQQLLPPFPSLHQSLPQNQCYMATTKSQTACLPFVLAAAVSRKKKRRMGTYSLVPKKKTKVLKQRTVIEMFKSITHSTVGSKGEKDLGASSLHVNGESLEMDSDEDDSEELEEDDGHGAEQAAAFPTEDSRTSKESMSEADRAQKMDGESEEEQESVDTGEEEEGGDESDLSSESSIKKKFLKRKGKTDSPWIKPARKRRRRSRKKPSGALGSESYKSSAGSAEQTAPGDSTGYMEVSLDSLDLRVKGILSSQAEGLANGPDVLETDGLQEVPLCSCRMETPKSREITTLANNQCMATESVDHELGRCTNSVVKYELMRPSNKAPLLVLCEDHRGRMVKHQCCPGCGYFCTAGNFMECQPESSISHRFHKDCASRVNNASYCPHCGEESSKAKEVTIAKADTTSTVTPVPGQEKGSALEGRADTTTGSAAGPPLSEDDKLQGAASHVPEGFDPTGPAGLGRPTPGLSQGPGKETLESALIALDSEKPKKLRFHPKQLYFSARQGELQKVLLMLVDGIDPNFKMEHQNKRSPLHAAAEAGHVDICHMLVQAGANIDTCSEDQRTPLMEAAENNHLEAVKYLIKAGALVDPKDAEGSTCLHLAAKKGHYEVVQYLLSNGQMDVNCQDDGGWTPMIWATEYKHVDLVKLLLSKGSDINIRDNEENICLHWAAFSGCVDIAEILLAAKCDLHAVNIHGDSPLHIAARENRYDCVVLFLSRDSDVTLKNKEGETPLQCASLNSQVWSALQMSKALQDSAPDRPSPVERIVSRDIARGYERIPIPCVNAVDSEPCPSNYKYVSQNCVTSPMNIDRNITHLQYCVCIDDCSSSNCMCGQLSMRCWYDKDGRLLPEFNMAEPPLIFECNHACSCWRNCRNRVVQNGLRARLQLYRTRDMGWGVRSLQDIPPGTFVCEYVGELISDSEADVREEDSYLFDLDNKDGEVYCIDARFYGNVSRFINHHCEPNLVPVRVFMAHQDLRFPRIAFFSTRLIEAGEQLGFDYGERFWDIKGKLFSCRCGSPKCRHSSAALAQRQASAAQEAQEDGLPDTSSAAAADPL

MLL2(h) complex = conditions: read-out: Reference: (IC50 not given); cited from earlier work

dopamine D3 (h), sequence (P35462 whole entry): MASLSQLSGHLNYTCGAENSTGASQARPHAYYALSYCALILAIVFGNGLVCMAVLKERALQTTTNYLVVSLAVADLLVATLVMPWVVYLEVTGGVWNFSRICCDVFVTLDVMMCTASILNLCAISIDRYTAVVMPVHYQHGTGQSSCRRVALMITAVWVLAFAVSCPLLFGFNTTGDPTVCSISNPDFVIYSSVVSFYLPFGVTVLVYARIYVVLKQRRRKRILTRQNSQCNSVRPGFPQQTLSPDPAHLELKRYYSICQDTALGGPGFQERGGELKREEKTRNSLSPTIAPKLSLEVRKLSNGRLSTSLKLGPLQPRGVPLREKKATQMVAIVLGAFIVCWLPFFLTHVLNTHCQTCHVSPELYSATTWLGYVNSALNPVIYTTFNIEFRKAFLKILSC

CC(C)=CCC[C@H](CO)[C@@H]1CC[C@@H](C)c2c1cc(C)c(O)c2O [Compound 1, 7,8,18-trihydroxyserrulat-14-ene]
inhibition at 10 µM (dopamine D3 (h); DOPAMINE D3 (h) (antagonist radioligand), read-out: % Inhibition of Control Specific Binding): 85% | inhibition at 10 µM (dopamine D3 (h); read-out: % inhibition of control specific binding): 85% | Relative cell count (%) Mean (HREC; 3.00E+00 microM): 85.1% | Relative cell count (%) Mean (HREC; 3.00E+01 microM): 20.9% | Relative cell count (%) Mean (HREC; 3.01E−01 microM): 96.7% | Relative cell count (%) Mean (HREC; 3.01E−02 microM): 96.0% | Relative cell count (%) Mean (HREC; 3.02E−03 microM): 94.0% | Relative cell count (%) Mean (HREC; 9.49E+00 microM): 40.4% | Relative cell count (%) Mean (HREC; 9.51E−01 microM): 89.3% | Relative cell count (%) Mean (HREC; 9.52E−02 microM): 95.8% | Relative cell count (%) Mean (HREC; 9.53E−03 microM): 93.3% | Relative cell count (%) Mean (HREC; 9.55E−04 microM): 98.5% | EC50 (HREC; 72 h, renal mixed epithelial, 3-day incubation, read-out: Cell Count EC50): 6450 nM | GI50 (HREC; 72 h, renal mixed epithelial, 3-day incubation, read-out: Cell Count GI50): 4300 nM | IC50 (HREC; 72 h, renal mixed epithelial, 3-day incubation, read-out: Cell Count IC50): 7980 nM | Emax ([1]; read-out: Inhibition of CCL2 release, Max Effect): 101% | EC50 ([1]; read-out: Inhibition of CCL2 release, Rel EC50): 92.2 nM | cytotoxicity [2]: 101% | EC50 [3]: 246 nM

Nc1ncnc2c1ncn2[C@@H]1O[C@H](CSCC[C@H](N)C(=O)O)[C@@H](O)[C@H]1O [SAH]
IC50 (DNMT3B/DNMT3L (h)): 45 nM | IC50 (EHMT1 (h)): 180 nM | IC50 (MLL2(h) complex): 970 nM

Reference: patent publication US11331299B2, “Medicinal use of serrulatane diterpenes” (The University of Sydney, priority 2016, dated 2022)
